Test results: ChEMBL document CHEMBL6109134, “Discovery of AMG 193, an MTA-Cooperative PRMT5 Inhibitor for the Treatment of MTAP-Deleted Cancers” (J Med Chem, 2025)
pIC50: −log10 of the molar value. Active and inactive are the calls of the source. No cut-off for these calls is given here.

Tests used:
[1] = Protein binding in dog plasma assessed as unbound fraction by ultracentrifugation
[2] = Protein binding in mouse plasma assessed as unbound fraction by ultracentrifugation; conditions: plasma
[3] = Unbound brain-to-plasma concentration ratio in female Sprague-Dawley rat at 75 mg/kg, po administered as single dose; assay type: ADME, organism-based; conditions: read-out: K(p,uu,brain)
[4] = target: T1, Nuclear receptor subfamily 1 group I member 2 (Homo sapiens, UniProt O75469); assay: Activation of human PXR in human HepG2 cells co-transfected with CYP3A4-luciferase at 10 uM incubated for 1 day relative to control; conditions: hepg2, 24 h
T1 sequence (O75469 whole entry): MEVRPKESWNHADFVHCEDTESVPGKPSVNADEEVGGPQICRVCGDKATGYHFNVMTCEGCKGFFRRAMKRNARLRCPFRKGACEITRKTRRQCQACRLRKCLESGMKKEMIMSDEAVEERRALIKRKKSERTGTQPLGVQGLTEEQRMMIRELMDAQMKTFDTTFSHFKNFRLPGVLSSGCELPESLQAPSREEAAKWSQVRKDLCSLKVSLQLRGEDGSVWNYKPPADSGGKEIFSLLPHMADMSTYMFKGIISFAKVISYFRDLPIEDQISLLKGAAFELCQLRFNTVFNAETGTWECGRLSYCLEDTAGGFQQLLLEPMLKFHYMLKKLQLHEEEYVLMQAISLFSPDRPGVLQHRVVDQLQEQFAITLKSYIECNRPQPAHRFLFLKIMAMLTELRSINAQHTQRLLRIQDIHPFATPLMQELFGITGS

[5] = target: Protein arginine N-methyltransferase 5 (Homo sapiens) (UniProt O14744); assay: In vivo inhibition of PRMT5 in athymic nude mouse xenografted with MTAP-deleted human HCT-116 cells assessed as decrease in SDMA level in tumor at 10 mg/kg, po administered once daily for 4 days and measured 4 hrs post last dose by ELISA relative to control; assay type: functional, organism-based; conditions: time 4.0 day
Protein arginine N-methyltransferase 5 (Homo sapiens), sequence (O14744 whole entry): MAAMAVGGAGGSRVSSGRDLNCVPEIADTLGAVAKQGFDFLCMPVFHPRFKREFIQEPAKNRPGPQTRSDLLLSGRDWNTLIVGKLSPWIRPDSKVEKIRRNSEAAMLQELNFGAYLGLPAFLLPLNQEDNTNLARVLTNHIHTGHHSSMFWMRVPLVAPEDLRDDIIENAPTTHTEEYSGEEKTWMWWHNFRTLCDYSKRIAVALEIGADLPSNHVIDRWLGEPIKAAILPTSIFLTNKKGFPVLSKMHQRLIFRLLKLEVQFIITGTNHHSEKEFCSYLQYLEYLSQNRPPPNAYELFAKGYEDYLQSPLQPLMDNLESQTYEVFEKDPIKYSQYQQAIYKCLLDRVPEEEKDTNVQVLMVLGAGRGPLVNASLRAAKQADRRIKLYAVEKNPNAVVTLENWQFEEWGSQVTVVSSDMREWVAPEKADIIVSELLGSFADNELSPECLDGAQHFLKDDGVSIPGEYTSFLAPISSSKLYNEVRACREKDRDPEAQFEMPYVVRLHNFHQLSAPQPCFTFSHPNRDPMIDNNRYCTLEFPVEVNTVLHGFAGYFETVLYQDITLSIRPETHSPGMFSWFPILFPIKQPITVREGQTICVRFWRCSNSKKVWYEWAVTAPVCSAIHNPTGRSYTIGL

[6] = test system: DOHH-2; assay: Antiproliferative activity against human DOHH-2 cells assessed as effect on cell viability; assay type: functional, cell-based
[7] = Efflux ratio in MDCK-II cells; conditions: dog
[8] = Protein binding in human plasma assessed as unbound fraction by ultracentrifugation
[9] = target: Cytochrome P450 2D6 (Homo sapiens, UniProt P10635); assay: Inhibition of CYP2D6 (unknown origin)
Cytochrome P450 2D6, sequence (P10635 whole entry): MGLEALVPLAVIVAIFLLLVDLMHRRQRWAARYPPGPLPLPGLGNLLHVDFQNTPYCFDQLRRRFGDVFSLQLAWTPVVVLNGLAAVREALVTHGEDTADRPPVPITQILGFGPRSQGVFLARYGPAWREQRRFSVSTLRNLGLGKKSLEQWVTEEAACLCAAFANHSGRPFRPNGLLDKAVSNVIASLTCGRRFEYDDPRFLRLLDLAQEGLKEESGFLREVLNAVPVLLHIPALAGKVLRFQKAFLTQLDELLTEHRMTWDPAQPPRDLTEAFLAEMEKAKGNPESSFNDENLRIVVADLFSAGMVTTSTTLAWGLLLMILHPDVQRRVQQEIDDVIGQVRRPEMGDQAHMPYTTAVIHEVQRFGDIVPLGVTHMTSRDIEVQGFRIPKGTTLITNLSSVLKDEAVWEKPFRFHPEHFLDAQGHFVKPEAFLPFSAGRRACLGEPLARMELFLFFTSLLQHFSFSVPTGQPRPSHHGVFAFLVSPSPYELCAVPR

[10] = Unbound clearance in Beagle dog at 0.5 mg/kg, iv; assay type: ADME, organism-based, Canis lupus familiaris; conditions: in vivo
[11] = target: Protein arginine N-methyltransferase 5 (Homo sapiens) (UniProt O14744); assay: In vivo inhibition of PRMT5 in athymic nude mouse xenografted with human HCT-116 cells harboring wildtype MTAP assessed as decrease in SDMA level in tumor at 10 mg/kg, po administered once daily for 4 days and measured 4 hrs post last dose by ELISA relative to control; assay type: functional, organism-based; conditions: time 4.0 day
[12] = Antitumor activity against MTAP-deleted human U-87 MG cells xenografted in female athymic nude mouse model assessed as tumor growth inhibition at 300 mg/kg, po administered once daily for 14 days and measured 24 hrs post last dose relative to control; assay type: functional, U-87MG ATCC; conditions: 360 h, time 15 day, read-out: TGI
[13] = target: CYP3A4 (Homo sapiens, UniProt P08684); assay: in vitro; conditions: human liver microsomes, probe midazolam
CYP3A4, sequence (P08684 whole entry): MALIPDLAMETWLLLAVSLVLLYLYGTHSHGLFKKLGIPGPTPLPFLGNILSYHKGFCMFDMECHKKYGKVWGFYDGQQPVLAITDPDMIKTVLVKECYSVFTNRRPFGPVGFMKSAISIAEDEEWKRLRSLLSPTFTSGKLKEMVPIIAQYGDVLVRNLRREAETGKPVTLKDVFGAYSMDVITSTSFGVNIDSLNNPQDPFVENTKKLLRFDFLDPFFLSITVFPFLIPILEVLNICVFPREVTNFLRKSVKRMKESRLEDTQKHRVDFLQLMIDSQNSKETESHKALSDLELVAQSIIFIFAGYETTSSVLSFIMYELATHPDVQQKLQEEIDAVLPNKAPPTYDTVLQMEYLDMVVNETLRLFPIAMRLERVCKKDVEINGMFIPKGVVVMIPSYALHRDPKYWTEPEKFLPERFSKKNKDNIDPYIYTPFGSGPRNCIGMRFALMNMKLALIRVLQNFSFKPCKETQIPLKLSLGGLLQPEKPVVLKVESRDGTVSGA

[14] = target: T2, Voltage-gated inwardly rectifying potassium channel KCNH2 (Homo sapiens, UniProt Q12809); assay: Inhibition of human ERG by binding assay
T2 sequence (Q12809 whole entry): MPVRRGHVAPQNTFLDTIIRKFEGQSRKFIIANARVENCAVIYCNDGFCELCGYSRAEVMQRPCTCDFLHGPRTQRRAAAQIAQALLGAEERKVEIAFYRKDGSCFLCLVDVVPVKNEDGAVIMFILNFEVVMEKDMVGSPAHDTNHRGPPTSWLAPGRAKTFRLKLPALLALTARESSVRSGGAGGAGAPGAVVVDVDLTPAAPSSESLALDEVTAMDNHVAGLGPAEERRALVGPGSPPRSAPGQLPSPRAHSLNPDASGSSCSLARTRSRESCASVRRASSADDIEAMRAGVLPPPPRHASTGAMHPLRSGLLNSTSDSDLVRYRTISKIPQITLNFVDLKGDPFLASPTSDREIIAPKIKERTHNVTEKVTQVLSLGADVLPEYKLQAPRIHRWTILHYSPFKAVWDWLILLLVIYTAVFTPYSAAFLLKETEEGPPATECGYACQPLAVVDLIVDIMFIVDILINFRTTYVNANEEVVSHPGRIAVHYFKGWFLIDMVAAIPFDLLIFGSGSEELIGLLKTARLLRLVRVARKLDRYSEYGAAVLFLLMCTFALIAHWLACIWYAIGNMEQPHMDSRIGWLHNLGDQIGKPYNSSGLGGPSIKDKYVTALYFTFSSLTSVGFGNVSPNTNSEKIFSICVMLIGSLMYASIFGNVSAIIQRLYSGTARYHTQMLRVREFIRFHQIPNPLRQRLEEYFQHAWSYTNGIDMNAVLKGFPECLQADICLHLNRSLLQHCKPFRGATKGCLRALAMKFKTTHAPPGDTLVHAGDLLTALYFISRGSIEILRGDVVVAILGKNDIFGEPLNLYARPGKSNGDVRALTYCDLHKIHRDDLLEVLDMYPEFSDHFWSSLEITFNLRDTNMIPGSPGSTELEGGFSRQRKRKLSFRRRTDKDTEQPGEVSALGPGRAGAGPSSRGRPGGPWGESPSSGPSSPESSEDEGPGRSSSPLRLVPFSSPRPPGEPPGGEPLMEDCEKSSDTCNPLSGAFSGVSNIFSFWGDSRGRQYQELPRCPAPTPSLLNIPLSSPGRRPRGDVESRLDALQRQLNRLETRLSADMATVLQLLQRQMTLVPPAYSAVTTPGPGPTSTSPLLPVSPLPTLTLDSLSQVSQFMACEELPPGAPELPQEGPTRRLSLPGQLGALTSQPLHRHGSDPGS

[15] = test system: BXPC-3; assay: Antitumor activity against MTAP-deleted human BXPC-3 cells xenografted in athymic nude mouse model assessed as tumor growth inhibition at 30 mg/kg, po administered once daily for 26 days and measured 24 hrs post last dose relative to control; assay type: functional; conditions: BXPC-3, 648 h, time 27 day, read-out: TGI
[16] = Clearance in Sprague-Dawley rat at 0.5 mg/kg, iv; conditions: in vivo
[17] = target: Protein arginine N-methyltransferase 5 (Homo sapiens) (UniProt O14744); assay: In vivo inhibition of PRMT5 in athymic nude mouse xenografted with MTAP-deleted human HCT-116 cells assessed as decrease in SDMA level in tumor at 30 mg/kg, po administered once daily for 4 days and measured 4 hrs post last dose by ELISA relative to control; assay type: functional, organism-based; conditions: time 4.0 day
[18] = Unbound CSF-to-plasma concentration ratio in female Sprague-Dawley rat at 25 mg/kg, po administered as single dose; assay type: ADME, organism-based
[19] = Unbound CSF-to-plasma concentration ratio in male Sprague-Dawley rat at 75 mg/kg, po administered as single dose; assay type: ADME, organism-based
[20] = Protein binding in rat plasma assessed as unbound fraction by ultracentrifugation
[21] = Unbound brain-to-plasma concentration ratio in male Sprague-Dawley rat at 25 mg/kg, po administered as single dose; assay type: ADME, organism-based; conditions: read-out: K(p,uu,brain)
[22] = Unbound CSF-to-plasma concentration ratio in male Sprague-Dawley rat at 25 mg/kg, po administered as single dose; assay type: ADME, organism-based
[23] = Metabolic stability in dog liver microsomes assessed as intrinsic clearance; assay type: ADME, Canis lupus familiaris, Microsome; conditions: read-out: CLH
[24] = target: Cytochrome P450 2C9 (Homo sapiens, UniProt P11712); assay: Inhibition of CYP2C9 (unknown origin)
Cytochrome P450 2C9, sequence (P11712 whole entry): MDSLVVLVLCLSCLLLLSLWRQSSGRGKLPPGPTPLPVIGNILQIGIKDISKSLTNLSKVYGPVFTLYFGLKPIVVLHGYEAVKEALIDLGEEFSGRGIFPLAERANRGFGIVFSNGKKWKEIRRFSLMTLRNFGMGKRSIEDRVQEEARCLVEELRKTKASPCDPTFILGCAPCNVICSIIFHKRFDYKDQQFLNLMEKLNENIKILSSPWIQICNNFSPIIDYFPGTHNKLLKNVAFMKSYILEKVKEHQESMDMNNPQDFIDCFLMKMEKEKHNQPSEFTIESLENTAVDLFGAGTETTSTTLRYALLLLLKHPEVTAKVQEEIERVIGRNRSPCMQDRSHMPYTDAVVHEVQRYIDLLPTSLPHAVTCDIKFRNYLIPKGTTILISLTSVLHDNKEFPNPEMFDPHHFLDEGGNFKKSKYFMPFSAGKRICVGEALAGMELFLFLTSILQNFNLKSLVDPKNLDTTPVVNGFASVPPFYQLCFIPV

[25] = test system: BXPC-3; assay: Antitumor activity against MTAP-deleted human BXPC-3 cells xenografted in athymic nude mouse model assessed as tumor growth inhibition at 10 mg/kg, po administered once daily for 26 days and measured 24 hrs post last dose relative to control; assay type: functional; conditions: BXPC-3, 648 h, time 27 day, read-out: TGI
[26] = target: Protein arginine N-methyltransferase 5 (Homo sapiens) (UniProt O14744); assay: In vivo inhibition of PRMT5 in female athymic nude mouse xenografted with MTAP-deleted human U-87 MG cells assessed as decrease in SDMA level in tumor at 30 mg/kg, po administered once daily for 14 days and measured 2 to 8 hrs post last dose by ELISA relative to control; assay type: functional, organism-based; conditions: time 338-344 hrs
[27] = target: T2, Voltage-gated inwardly rectifying potassium channel KCNH2; assay: Inhibition of human ERG by QPatch clamp method
[28] = Passive permeability in MDCK-II cells at 0.1 to 10 uM; assay type: ADME, cell-based, Canis lupus familiaris; conditions: dog, dose 0.1-10 µM, read-out: permeability
[29] = test system: HCT-116; assay: Antitumor activity against human HCT-116 cells harboring wildtype MTAP xenografted in female athymic nude mouse model assessed as tumor growth inhibition at 3 to 100 mg/kg, po administered once daily for 14 days; assay type: functional, organism-based; conditions: dose 3-100 mg/kg, time 14.0 day
[30] = target: Protein arginine N-methyltransferase 5 (Homo sapiens) (UniProt O14744); assay: In vivo inhibition of PRMT5 in athymic nude mouse xenografted with human HCT-116 cells harboring wildtype MTAP assessed as decrease in SDMA level in tumor at 30 mg/kg, po administered once daily for 4 days and measured 4 hrs post last dose by ELISA relative to control; assay type: functional, organism-based; conditions: time 4.0 day
[31] = Metabolic stability in human liver microsomes assessed as intrinsic clearance at 0.5 uM incubated for 40 mins in presence of NADPH; assay type: ADME, Microsome; conditions: read-out: CLH
[32] = test system: HCT-116; assay: Antitumor activity against MTAP-deleted human HCT-116 cells xenografted in female athymic nude mouse model assessed as tumor growth inhibition at 10 mg/kg, po administered once daily for 14 days relative to control; assay type: functional; conditions: HCT-116, 336 h, time 14 day, read-out: TGI
[33] = Antitumor activity against MTAP-deleted human U-87 MG cells xenografted in female athymic nude mouse model assessed as tumor growth inhibition at 10 mg/kg, po administered once daily for 14 days and measured 24 hrs post last dose relative to control; assay type: functional, U-87MG ATCC; conditions: 360 h, time 15 day, read-out: TGI

Structure (SMILES): Nc1nc2cnc(C(=O)N3CCOC[C@@H]3c3ccc(C(F)(F)F)cc3)cc2c2c1COC2
- fraction unbound [1]: 0.08
- fraction unbound [2]: 0.07
- Kp uu [3]: 0.12
- Activity [4]: < 20%
- inhibition [5]: 73%
- pIC50 [6]: 7.29
- efflux ratio [7]: 3
- fraction unbound [8]: 0.11
- pIC50 [9]: 3.93
- CL free [10]: 50 mL/min/kg
- inhibition [11]: 32%
- inhibition in vivo at 300 mg/kg [12]: 88%
- inhibition at 30 min, 10 µM [13]: < 20%
- pIC50 [14]: < 4.54
- inhibition in vivo at 30 mg/kg [15]: 61%
- clearance [16]: 28.3 mL/min/kg
- inhibition [17]: 72%
- Kp uu [18]: 0.2
- Kp uu [19]: 0.13
- fraction unbound [20]: 0.1
- Kp uu [21]: 0.15
- Kp uu [22]: 0.24
- microsomal CLint [23]: 14 µL/min/mg
- pIC50 [24]: 4.23
- inhibition in vivo at 10 mg/kg [25]: 19%
- inhibition [26]: 77%
- pIC50 [27]: < 4.52
- Papp at up to 10 µM [28]: 33 ×10⁻⁶ cm/s
- Activity [29]: inactive
- inhibition [30]: 48%
- microsomal CLint at 0.5 µM [31]: 24 µL/min/mg
- inhibition in vivo at 10 mg/kg [32]: 55%
- inhibition in vivo at 10 mg/kg [33]: 42%
